Measurements reported in PubChem BioAssay (NCI).
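Assay format: 96-well plates, 48-hour exposure. TGI is the concentration that stops growth completely.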

Key:
Test in all cases: inhibition of tumour cell growth, NCI panel, 48 h
OVCAR-4 ovarian = test system: OVCAR-4 ovarian
TK-10 renal = test system: TK-10 renal
COLO 205 colon = test system: COLO 205 colon
U251 CNS = test system: U251 CNS
MCF7 breast = test system: MCF7 breast
A549 NSCLC = test system: A549 NSCLC
HCT-116 colon = test system: HCT-116 colon
SR leukemia = test system: SR leukemia
OVCAR-3 ovarian = test system: OVCAR-3 ovarian
SK-MEL-28 melanoma = test system: SK-MEL-28 melanoma
SF-268 CNS = test system: SF-268 CNS
UACC-257 melanoma = test system: UACC-257 melanoma
HT29 colon = test system: HT29 colon
SK-OV-3 ovarian = test system: SK-OV-3 ovarian
LOX IMVI melanoma = test system: LOX IMVI melanoma
BT-549 breast = test system: BT-549 breast
SNB-19 CNS = test system: SNB-19 CNS
SN12C renal = test system: SN12C renal
M14 melanoma = test system: M14 melanoma
RXF 393 renal = test system: RXF 393 renal
UACC-62 melanoma = test system: UACC-62 melanoma
DU-145 prostate = test system: DU-145 prostate
NCI-H23 lung = test system: NCI-H23 lung
CCRF-CEM leukemia = test system: CCRF-CEM leukemia
SK-MEL-2 melanoma = test system: SK-MEL-2 melanoma
IGROV1 ovarian = test system: IGROV1 ovarian
MDA-MB-435 = test system: MDA-MB-435
MOLT-4 leukemia = test system: MOLT-4 leukemia
HL-60(TB) leukemia = test system: HL-60(TB) leukemia
NCI-H226 lung = test system: NCI-H226 lung
RPMI-8226 leukemia = test system: RPMI-8226 leukemia
K-562 leukemia = test system: K-562 leukemia
HOP-92 NSCLC = test system: HOP-92 NSCLC
PC-3 prostate = test system: PC-3 prostate
EKVX NSCLC = test system: EKVX NSCLC
ACHN renal = test system: ACHN renal
T-47D breast = test system: T-47D breast
MDA-N = test system: MDA-N
CAKI-1 renal = test system: CAKI-1 renal
SK-MEL-5 melanoma = test system: SK-MEL-5 melanoma
A498 renal = test system: A498 renal
SNB-75 CNS = test system: SNB-75 CNS
SF-295 CNS = test system: SF-295 CNS
NCI/ADR-RES ovarian = test system: NCI/ADR-RES ovarian
OVCAR-8 ovarian = test system: OVCAR-8 ovarian
MDA-MB-231 breast = test system: MDA-MB-231 breast
786-0 renal = test system: 786-0 renal
OVCAR-5 ovarian = test system: OVCAR-5 ovarian
HCT-15 colon = test system: HCT-15 colon
SF-539 CNS = test system: SF-539 CNS
HOP-62 NSCLC = test system: HOP-62 NSCLC
HS 578T breast = test system: HS 578T breast
UO-31 renal = test system: UO-31 renal
MALME-3M melanoma = test system: MALME-3M melanoma
NCI-H522 lung = test system: NCI-H522 lung
SW-620 colon = test system: SW-620 colon
NCI-H460 lung = test system: NCI-H460 lung
KM12 colon = test system: KM12 colon
HCC-2998 colon = test system: HCC-2998 colon

Measured: TGI

C[N+](C)(C)C=Nc1cccc2c1CCCC2
not listed: NCI-H522 lung | SW-620 colon | NCI-H460 lung | KM12 colon | HCC-2998 colon
> 100 µM: all other assays above

C[Si](C)(c1ccc(C(=O)O)cc1)c1ccc(C(=O)O)cc1
not listed: HL-60(TB) leukemia | UO-31 renal | HCC-2998 colon
> 100 µM: all other assays above

CCOC(=O)c1c(C)nc2c(c1-c1cn(-c3ccccc3)nc1-c1ccccc1)C(=O)c1ccccc1-2
not listed: MCF7 breast | SR leukemia | HL-60(TB) leukemia | RPMI-8226 leukemia | ACHN renal | SF-539 CNS | UO-31 renal | NCI-H460 lung | HCC-2998 colon
> 100 µM: all other assays above

COc1ccc(C2OCCN2C)cc1 (stereo unspecified)
not listed: SK-MEL-28 melanoma | SN12C renal | DU-145 prostate | HL-60(TB) leukemia | HCC-2998 colon
> 100 µM: all other assays above

O=C(O)/C=C\C(=O)Nc1ccccn1
not listed: TK-10 renal | MCF7 breast | HCC-2998 colon
> 100 µM: all other assays above

O=Nn1c2ccccc2c2cc([N+](=O)[O-])ccc21
19.5 µM: SNB-75 CNS
29.8 µM: HOP-92 NSCLC
39.9 µM: MDA-MB-231 breast
36.3 µM: EKVX NSCLC
44.5 µM: CCRF-CEM leukemia
35 µM: PC-3 prostate
47.9 µM: M14 melanoma
28.5 µM: DU-145 prostate | SF-295 CNS
56.5 µM: UACC-257 melanoma
33.1 µM: U251 CNS
47.7 µM: OVCAR-5 ovarian
82.9 µM: HS 578T breast
26.9 µM: A498 renal
73.2 µM: A549 NSCLC
32.5 µM: HCT-116 colon
58.1 µM: SNB-19 CNS
25.7 µM: HOP-62 NSCLC
30.8 µM: RXF 393 renal
54.2 µM: NCI-H460 lung
38.8 µM: RPMI-8226 leukemia
37.2 µM: SF-539 CNS
38.3 µM: BT-549 breast | NCI-H23 lung
42 µM: KM12 colon
30.2 µM: IGROV1 ovarian
29.1 µM: NCI-H522 lung
58 µM: MCF7 breast
32.9 µM: UACC-62 melanoma
38.5 µM: MALME-3M melanoma
70.9 µM: MOLT-4 leukemia
74 µM: NCI/ADR-RES ovarian
68 µM: HT29 colon
30.1 µM: SK-OV-3 ovarian
32.8 µM: MDA-MB-435
39.3 µM: SK-MEL-28 melanoma
30.9 µM: LOX IMVI melanoma
37 µM: SN12C renal
29.3 µM: ACHN renal
96.8 µM: SK-MEL-2 melanoma
32.7 µM: SF-268 CNS
59.7 µM: SW-620 colon
31.6 µM: CAKI-1 renal | OVCAR-8 ovarian
32.1 µM: OVCAR-4 ovarian | TK-10 renal
33.6 µM: OVCAR-3 ovarian
37.5 µM: MDA-N
49.2 µM: UO-31 renal
not listed: SR leukemia | NCI-H226 lung | 786-0 renal
> 100 µM: all other assays above

CCCC1C(=O)Nc2cccc3ncn(c23)C1=O (stereo unspecified)
not listed: TK-10 renal | LOX IMVI melanoma | NCI-H522 lung | HCC-2998 colon
> 100 µM: all other assays above
